Test results published in patent US20250034139A1, “AMINE COMPOUNDS HAVING ANTI-INFLAMMATORY, ANTIFUNGAL, ANTIPARASITIC, AND ANTICANCER ACTIVITY” (PHARMA CINQ, LLC, priority 2013, published 2025).

What was measured:
[1] = test system: 4T1 murine breast cancer cells; assay: Example S: in vitro anticancer screen, 4T1 cells, Wst1; type: cell-based, mouse; details: Mus musculus, 4T1, 18 h, 18 hr, Wst1; for viability at 1 µM: read-out: 4T1 1 μM, percent of cancer cell survival relative to vehicle treated cells; for viability at 5 µM: read-out: 4T1 5 μM, percent of cancer cell survival relative to vehicle treated cells
Description: Anticancer activity against 4T1 murine breast cancer cells cancer cells was assessed in vitro by seeding 1×10^4 cells/well in flat bottom culture plates, then treating with selected 1 μM or 5 μM concentrations of compounds for 18 hr after plating. Then 10 μL of Wst1 dye reagent, a tetrazolium dye indicator for […], was added/well and incubated approximately 2 hr before being assayed on the Biotek EL800 Universal microplate reader (450 nm, reference 630 nm).
Numerical values in the Table 37 represent percent of cancer cell survival relative to vehicle treated cells at the indicated concentrations, with values under 100 indicating anticancer cytotoxic activity at the drugs concentrations tested.

THP-1 cells = assay: Example D: LPS-triggered THP-1 cell death assay, acute/5-hour and chronic/48-hour; type: cell-based, Human; details: 10 ng/ml LPS, 0.1 μM test compound, 48 hours
Description: Compounds of the invention were tested at 0.1 μM versus AC in the LPS-triggered THP-1 cell death assay. Both acute/5-hour and chronic/48-hour phases of cell death were assessed. Compounds were screened in batches with DMSO as the negative control and AC as the high activity control.

[2] = test system: PC-3 prostate cancer cells; assay: Example T: sensitisation of PC-3 cells to doxorubicin, oxaliplatin, paclitaxel or vincristine, Wst1; type: cell-based, human; details: PC-3 cells, 72 hours

| Compound | viability at 1 µM [1] [%] | viability at 5 µM [1] [%] | Viable cell percent change, Chronic/48-hour, Mean (THP-1 cells) [%] | further results |
| --- | --- | --- | --- | --- |
| CCCCCCOCCCCCCCCNc1nccc2ccccc12 [FS, N-[8-(Hexyloxy)octyl]isoquinolin-1-amine] | 122 | 107 | – | – |
| CCCCCCOCCCCCCCCNc1ccccn1 [FP, N-[8-(Hexyloxy)octyl]pyridin-2-amine] | 116 | 116 | 30.44 | – |
| CCCCCCOCCCCCCCCNc1cnc2ccccc2n1 [FU, N-[8-(Hexyloxy)octyl]quinoxalin-2-amine] | 118 | 106 | – | – |
| CCCCCCOCCCCCCCC(=O)Nc1ccc2ncccc2c1 [CB, N-(Quinolin-6-yl)-8-(hexyloxy)octanamide] | 105 | 102 | 10.62 | – |
| CCCCCCCCCCOc1cccc(CNc2ncnc3ccccc23)c1 [CG, N-[3-(Decyloxy)benzyl]quinazolin-4-amine] | – | – | 54.66 | – |
| CCCCCCOCCCCCCCCn1cnc2cccnc21 [FX, 3-[8-(Hexyloxy)octyl]-3H-imidazo[4,5-b]pyridine] | 112 | 96.6 | – | – |
| CCCCCCOc1ccccc1C(=O)NCCCCNc1ccnc2ccccc12 [ED, 2-(Hexyloxy)-N-[4-(quinolin-4-ylamino)butyl]benzamide] | – | – | 81.40 | – |
| CCCCCCOCCCCCCCCNc1cnccn1 [FV, N-[8-(Hexyloxy)octyl]pyrazin-2-amine] | 104 | 101 | 17.51 | – |
| c1ccc2c(NCCN3CCOCC3)ccnc2c1 [BS, N-[2-(Morpholin-4-yl)ethyl]quinolin-4-amine] | 105 | 117 | – | – |
| CCCCC(OC(C)=O)c1nc2c(N)nc3ccccc3c2n1CC(C)C (stereo not shown) [FC, 1-(4-Amino-1-isobutyl-1H-imidazo[4,5-c]quinolin-2-yl)pentyl acetate] | 115 | 123 | – | – |
| COCCNc1ccnc2ccccc12 [BR, N-(2-Methoxyethyl)quinolin-4-amine] | 106 | 122 | – | – |
| CCCCOc1ccc(Nc2ccnc3ccccc23)cc1 [DK, N-(4-Butoxyphenyl)quinolin-4-amine] | 102 | 87.6 | 73.60 | – |
| CN(C)c1ccc(CNc2ccnc3ccccc23)cc1 [BX, N-(4-Dimethylaminobenzyl)quinolin-4-amine] | 116 | 116 | 25.10 | – |
| O=C(NCCCNc1ccnc2ccccc12)c1ccccc1 [BT, N-[3-(Quinolin-4-ylamino)propyl]benzamide] | 119 | 121 | 66.98 | – |
| CCCCCCOCCCCCCCCNc1cccc2cccnc12 [EM, N-[8-(Hexyloxy)octyl]quinolin-8-amine] | 106 | 93 | – | – |
| CCN(CC)CCNC(=O)c1ccc(Nc2ccnc3ccccc23)cc1 [BW, N-(2-Diethylaminoethyl)-4-(quinolin-4-ylamino)benzamide] | 123 | 236 | 36.08 | – |
| CCCCCC(=O)Nc1cccc(Nc2ccnc3ccccc23)c1 [DH, N-[3-(Quinolin-4-ylamino)phenyl]hexanamide] | 96.6 | 112 | 50.89 | – |
| c1ccc(-c2ccc(Nc3ccnc4ccccc34)cc2)cc1 [DC, N-(Biphenyl-4-yl)quinolin-4-amine] | 110 | 96.7 | 87.66 | – |

| Compound | viability at 1 µM [1] [%] | viability at 5 µM [1] [%] | Viable cell percent change, Chronic/48-hour, Mean (THP-1 cells) [%] | further results |
| --- | --- | --- | --- | --- |
| CCCCCC(=O)Nc1ccc(Nc2ccnc3ccccc23)cc1 [DG, N-[4-(Quinolin-4-ylamino)phenyl]hexanamide] | 105 | 94.7 | 37.90 | – |
| c1ccc(CNc2ccnc3ccccc23)cc1 [DQ, N-Benzylquinolin-4-amine] | 99.5 | 122 | 32.31 | – |
| COCCCCCCCCNc1ccncc1 [FN, N-(8-Methoxyoctyl)pyridin-4-amine] | 92.9 | 79.4 | 3.54 | – |
| c1ccc(CNc2ccnc3ccccc23)nc1 [EH, N-(Pyridin-2-ylmethyl)quinolin-4-amine] | 116 | 128 | 32.85 | – |
| c1ccc2c(NCc3ccncc3)ccnc2c1 [BZ, N-(Pyridin-4-ylmethyl)quinolin-4-amine] | 122 | 260 | 30.72 | – |
| O=C(NCCCCNc1ccnc2ccccc12)c1ccccc1 [DW, N-[4-(Quinolin-4-ylamino)butyl]benzamide] | 102 | 194 | 73.97 | – |
| c1ccc(CCOc2cccc(CNc3ccnc4ccccc34)c2)cc1 [DV, N-(3-Phenethoxybenzyl)quinolin-4-amine] | – | – | 24.69 | viability at 0.4 µM ([2]; Homo sapiens, compound 0.4 μM alone, Wst1, vehicle = 100, read-out: No Chemo: percent cell survival): 31.6%; Doxorubicin 3.5 μM: percent cell survival ([2]; compound 0.4 μM + doxorubicin 3.5 μM, chemotherapy agent alone normalized to 100%): 76.7%; Oxaliplatin 100 μM: percent cell survival ([2]; compound 0.4 μM + oxaliplatin 100 μM, chemotherapy agent alone normalized to 100%): 61.9%; Paclitaxel 50 μM: percent cell survival ([2]; compound 0.4 μM + paclitaxel 50 μM, chemotherapy agent alone normalized to 100%): 23.3%; Vincristine 100 nM: percent cell survival ([2]; compound 0.4 μM + vincristine 100 nM, chemotherapy agent alone normalized to 100%): 32.2% |
| CCCCCCOCCCCCCCC(=O)NCc1ccncc1 [CA, N-(Pyridin-4-ylmethyl)-8-(hexyloxy)octanamide] | 108 | 109 | – | – |
| COc1ccc(Nc2ccnc3ccccc23)cc1 [DI, N-(4-Methoxyphenyl)quinolin-4-amine] | 108 | 126 | 82.24 | – |
| CCCCCCOCCCCCCCCNc1ncccn1 [FQ] | 110 | 98 | 25.62 | – |
| CCCCCCCCCCOc1ccc(CNc2ccnc3ccccc23)cc1 [DT, N-[4-(Decyloxy)benzyl]quinolin-4-amine] | – | – | 16.12 | – |
| CCCCCCCCCCCCCCCCn1cnc2cnccc21 [FM, 1-Hexadecyl-1H-imidazo[4,5-c]pyridine] | – | – | 9.74 | – |
| CCCCCCOCCCCCCCCn1cnc2ccccc21 [CC, 1-[8-(Hexyloxy)octyl]-1H-benzimidazole] | 110 | 99.5 | – | – |
| O=C(NCCCCCCNc1ccnc2ccccc12)c1ccccc1 [DX, N-[6-(Quinolin-4-ylamino)hexyl]benzamide] | 112 | 105 | 59.95 | – |
| CCCCCCOCCCCCCCCNc1ccc2ncccc2c1 [EK, N-[8-(Hexyloxy)octyl]quinolin-6-amine] | 116 | 114 | 15.50 | – |
| CCCCCCOCCCCCCCCNc1cc(C(F)(F)F)nc2ccccc12 [EN, N-[8-(Hexyloxy)octyl]-2-(trifluoromethyl)quinolin-4-amine] | 93.3 | 89.8 | 6.64 | – |
| CCCCCCOCCCCCCCCNc1ccnc2c(C(F)(F)F)cccc12 [CN, N-[8-(Hexyloxy)octyl]-8-(trifluoromethyl)quinolin-4-amine] | 32.5 | 18.8 | 3.70 | – |
| CCCCCCOCCCCCCCCNc1cccnc1 [FO, N-[8-(Hexyloxy)octyl]pyridin-3-amine] | 106 | 146 | 20.18 | – |
